According to ChEMBL document CHEMBL1124332, “2-(Alkylamino)tetralin derivatives: interaction with 5-HT1A serotonin binding sites” (J Med Chem, 1989):

Legend:
[1] = target: T1, 5-hydroxytryptamine receptor 1A (Rattus norvegicus, UniProt P19327); test: Binding affinity at [3H]8-OH-DPAT-Labeled 5-hydroxytryptamine 1A receptor sites in rat brain hippocampal membranes; format: cell membranes
T1 sequence (P19327 whole entry): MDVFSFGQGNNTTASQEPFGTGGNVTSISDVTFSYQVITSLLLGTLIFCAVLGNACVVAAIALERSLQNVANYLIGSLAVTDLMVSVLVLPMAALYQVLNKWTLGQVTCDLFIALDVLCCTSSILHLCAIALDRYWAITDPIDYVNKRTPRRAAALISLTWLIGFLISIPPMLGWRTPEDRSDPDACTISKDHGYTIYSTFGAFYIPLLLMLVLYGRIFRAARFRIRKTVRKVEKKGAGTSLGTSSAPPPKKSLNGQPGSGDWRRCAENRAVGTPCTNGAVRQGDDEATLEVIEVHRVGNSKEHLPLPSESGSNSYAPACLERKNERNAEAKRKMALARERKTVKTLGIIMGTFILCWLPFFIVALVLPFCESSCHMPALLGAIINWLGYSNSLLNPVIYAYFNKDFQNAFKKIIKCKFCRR

[2] = target: T2, 5-hydroxytryptamine receptor 1A (Rattus norvegicus) (UniProt P19327); test: Binding affinity at [3H]8-OH-DPAT-Labeled 5-hydroxytryptamine 1A receptor sites in rat brain hippocampal membranes expressed as Hill values; format: cell membranes
T2 sequence (whole entry): T1 sequence (P19327 whole entry)

SMILES	Ki [1] [nM]	Hill coefficient [2]
CCCNC1CCc2cccc(OC)c2C1 (stereo not drawn)	2.3	0.8
c1ccc(CCCNC2CCc3ccccc3C2)cc1 (stereo not drawn)	13	1.06
COc1cccc2c1CC(N(C)CCc1ccccc1)CC2 (stereo not drawn)	7.9	0.9
COc1cccc2c1CC(NCCCc1ccccc1)CC2 (stereo not drawn)	2.5	0.83
COc1cccc2c1CC(NCCCCc1ccccc1)CC2 (stereo not drawn)	5.6	0.92
Oc1cccc2c1CC(NCCCc1ccccc1)CC2 (stereo not drawn)	1.9	0.87
CCCNC1CCc2ccccc2C1 (stereo not drawn)	19	0.74
CCCN(C)C1CCc2cccc(OC)c2C1 (stereo not drawn)	2.1	0.91
COc1cccc2c1CC(N)CC2 (stereo not drawn)	53	0.77
COc1cccc2c1CC(N(C)CCCc1ccccc1)CC2 (stereo not drawn)	2	0.94
CCCN(CCC)C1CCc2cccc(OC)c2C1 (stereo not drawn)		0.78
COc1cccc2c1CC(NCCc1ccccc1)CC2 (stereo not drawn)	44	0.85
CCCN(CCC)C1CCc2cccc(O)c2C1 (stereo not drawn)		1.01
c1ccc(CCCNC2CCc3cccc(OCc4ccccc4)c3C2)cc1 (stereo not drawn)	10	0.91
COc1cccc2c1CC(N(C)Cc1ccccc1)CC2 (stereo not drawn)	78	0.91
